Counter-ions that a name gives are not always drawn.
Key:
Wistar Kyoto (WKY) rats [1] = details: cited from earlier work
Wistar Kyoto (WKY) rats [2] = details: cited from earlier work; remark: listed apart in the source
mice = details: doses that failed to produce antidepressant effects in control animals; cited from earlier work
burn wounds = assay: Burn wounds, 7% body surface, topical treatment (rats); type: in vivo, Sprague-Dawley rats; details: 1% chlorhexidine hydrochloride in combination with BAC-3 in ointment, burn wounds
Procedure: The wounding of animals was performed according to the Protocol for Animal Use and Care at the University of California-Davis (hereafter UC-Davis). The entire animal protocol required 70 Sprague-Dawley rats: 30 rats for incision wounds and 40 rats for burn wounds. Among them 36 rats were burned over 7% of their skin and 4 rats were burned over 15% of their skin. Incision wounds of whole skin and burn wounds were treated topically with 2 test doses of the pharmaceutical preparation of di-rhamnolipid BAC-3. […] D.E.A. Hamburg); 23.8 g Lanolinum (Producer I.O.I. Hamburg); 4.7 g Cholesterin (Producer: Solvay, Wiena, Austria); Water Number: 320); or b). 1%; 0.1% active rhamnolipid (BAC-3) with antiseptic (chlorhexidine hydrochloride-[…]). Eucerin with BAC-3 was administrated twice daily during healing. The same experiment had one control group without the treatment, and one control group which was treated with ointment+1% chlorhexidine hydrochloride. During the experiment, animal body weight and behavior was checked every third day, and photographs were taken periodically. Burn wounds. The consecutive burn wounds should ideally be identical in depth and extent. The standard method defines the size and location of the burn wound, the temperature gradient, duration of exposure and method of applying the burn. The wound surface areas tested were of two different sizes. One size to 7% of the body surface, which enables one to compare the rate of wound healing with different percentage of BAC-3 and the other size to 15% of the body surface, which is a sufficient size so that healing could not occur by contraction alone. On the other hand, the total wound surface area should not cause major systematic problems. The latter can be concluded from undisturbed weight gain of the animals. The standard animal burn was performed by techniques and device described by Walker. The burning devices were prepared using a model device ordered from U.S. Army Surgical Research Unit, Experimental Surgery, Army Medical Center, Fort Sam Houston, Tex. 78234. […] The surface of the skin was measured for every animal using Mech's formula: A=kW^2/3; A=surface area in cm^2; W=body weight in grams; k=10. Method of burning. Each animal was anesthetized with sodium pentobarbital administered i/p (5 mg/25 g). (Producer: Veterinary Laboratory Inc. Lenexa, Kans.). The hair over the dorsum was clipped with animal clippers. The animal was placed supine in the burning device and the extremities were tied; the malleable retractor was placed over the animal and secured snugly with plastic straps. The entire device was then picked up by the retractor ends with forceps and the exposed area was immersed in boiling water. Ten seconds of exposure was sufficient to produce a full-thickness burn. On removal from the water, the dorsum was quickly dried by rolling on a towel and the animal was released and individually caged. This procedure produced a uniform burn with sharp margins. On post burn days 7, 14 and 45, animals were sacrificed by overdose of sodium pentobarbital and skin specimens were taken for histopathology. Specimens included the wound bed as well as the healthy skin of the wound margins. The specimens were fixed, and two stainings were routinely performed: Hematoxylin-Eosin (H&E) for microscopic evaluation, Verhoeff's staining for a better visualization of the crust and the regenerating dermis, and the alpha smooth muscle acting to identify the myofibroblasts. Microscopic findings were interpreted by a veterinarian pathologist. During the microscopic and macroscopic observations, four wound healing parameters were evaluated: crust formation, re-epithelialization, formation of granulation tissue and inflammation. 36 rats were divided into 6 groups. Each group had six animals. After burning rats according to the above-described procedure, each rat was caged individually. […]

Structure (SMILES): CNCCCN1c2ccccc2CCc2ccccc21 [desipramine]
- immobility in the forced swim test (Wistar Kyoto (WKY) rats [1]): reduces
- incidence of stress ulcer (Wistar Kyoto (WKY) rats [2]): reduces

Structure (SMILES): Cc1nc2sccn2c(=O)c1CCN1CCC(=C(c2ccc(F)cc2)c2ccc(F)cc2)CC1 [ritanserin]
- PCP-induced enhancement of immobility in the forced swimming test (mice): attenuated

Structure (SMILES): Cc1nc2n(c(=O)c1CCN1CCC(c3noc4cc(F)ccc34)CC1)CCCC2 [risperidone]
- PCP-induced enhancement of immobility in the forced swimming test (mice): attenuated

Structure (SMILES): [H]/N=C(\N/C(=N/[H])NCCCCCCNC(=N)NC(=N)Nc1ccc(Cl)cc1)Nc1ccc(Cl)cc1 [chlorhexidine hydrochloride, reference compound]
- wound irritation (rats scratched the wounds) (burn wounds): irritated wounds

Reference: patent US7129218B2, “Use of rhamnolipids in wound healing, treatment and prevention of gum disease and periodontal regeneration” (Paradigm Biomedical, Inc., priority 1999, dated 2006)
